Source: article PMC5560435 (Journal of fluorine chemistry, 2017)
Read-outs that look alike come from different tables or passages of the source.

Experiments:
tubulin [1] = conditions: cited from earlier work
microtubules [2] = conditions: cited from earlier work
CYP 3A4 = CYP 3A4 in humans; cited from earlier work
[3] = test system: CSC-enriched (CD133++) HCT-116 human colon cancer cell line; conditions: cited from earlier work
[4] = test system: NCI/ADR multidrug-resistant human ovarian carcinoma; conditions: cited from earlier work; for R/S resistance factor: (IC50 NCI/ADR)/(IC50 MCF7-S); for IC50: read-out: IC50 NCI/ADR (ovarian), 72 h drug exposure
[5] = test system: MCF7-S human breast carcinoma; conditions: read-out: IC50 MCF7-S (breast); 72 h drug exposure; cited from earlier work
[6] = test system: PANC-1 human pancreatic cancer cell line; conditions: read-out: IC50 PANC-1 (pancreatic); 72 h drug exposure; cited from earlier work
[7] = test system: microtubule protein (tubulin); conditions: microtubule protein 1 mg/mL, 37 °C, Drug 10 μM; cited from earlier work
[8] = test system: HT-29 human colon cancer cell line; conditions: read-out: IC50 HT-29 (colon); 72 h drug exposure; cited from earlier work
[9] = test system: CSC-enriched (CD133++) HCT-116 human colon cancer cell line; experiment: Cytotoxicity against CSC-enriched HCT-116; type: cell-based; conditions: CSC-enriched HCT-116, from Table 2
microtubules [10] = experiment: Binding to microtubules, fluorescent ligand displacement method; conditions: from Table 4
tubulin [11] = experiment: Critical concentration of tubulin for microtubule assembly; type: biochemical; conditions: from Table 3

SMILES	IC50 [3]	R/S resistance factor [4]	IC50 [4]	IC50 [5]	also measured
CC(=O)O[C@@]12CO[C@@H]1C[C@H](O)[C@@]1(C)C(=O)[C@H](OC(=O)C3CC3)C3=C(C)[C@@H](OC(=O)[C@H](O)[C@H](C=C(C)C)NC(=O)OC(C)(C)C)C[C@@](O)([C@@H](OC(=O)c4ccccc4)[C@H]21)C3(C)C [SB-T-1214]	0.28 ± 0.1 nM	–	–	–	Critical concentration of tubulin required for microtubule assembly (tubulin [1]): 0.9 ± 0.2 µM; Binding constant with microtubules (microtubules [2]; 26 °C): 12±2 x10^7 M^−1; Binding constant with microtubules (microtubules [2]; 37 °C): 7±1 x10^7 M^−1; Primary metabolism (CYP 3A4): hydroxylation primarily at the two allylic methyl groups of the 3′-isobutenyl group
CC(=O)O[C@@]12CO[C@@H]1C[C@H](O)[C@@]1(C)C(=O)[C@H](OC(=O)N(C)C)C3=C(C)[C@@H](OC(=O)[C@H](O)[C@H](C=C(C)C)NC(=O)OC(C)(C)C)C[C@@](O)([C@@H](OC(=O)c4ccccc4)C12)C3(C)C (some centres unmarked) [SB-T-1216]	0.83 ± 0.05 nM	–	–	–	Primary metabolism (CYP 3A4): hydroxylation primarily at the two allylic methyl groups of the 3′-isobutenyl group
CC(=O)O[C@H]1C(=O)[C@@]2(C)C([C@H](OC(=O)c3cccc(N=[N+]=[N-])c3)[C@]3(O)C[C@H](OC(=O)[C@H](O)[C@H](C=C(F)F)NC(=O)OC(C)(C)C)C(C)=C1C3(C)C)[C@]1(OC(C)=O)CO[C@@H]1C[C@@H]2O (some centres unmarked) [SB-T-12851-3]	–	3.7	0.34 nM	0.092 nM	–
CC(=O)O[C@H]1C(=O)[C@@]2(C)C([C@H](OC(=O)c3ccccc3)[C@]3(O)C[C@H](OC(=O)[C@H](O)[C@H](C=C(F)F)NC(=O)OC(C)(C)C)C(C)=C1C3(C)C)[C@]1(OC(C)=O)CO[C@@H]1C[C@@H]2O (some centres unmarked) [SB-T-12851]	–	9.6	0.95 nM	0.099 nM	IC50 [6]: 1.19 nM; Rate of GTP-independent tubulin polymerization [7]: much faster than paclitaxel; IC50 [8]: 0.41 nM
COc1cccc(C(=O)O[C@H]2[C@@H]3[C@]4(OC(C)=O)CO[C@@H]4C[C@H](O)[C@@]3(C)C(=O)[C@H](OC(=O)C3CC3)C3=C(C)[C@@H](OC(=O)[C@H](O)[C@H](C=C(F)F)NC(=O)OC(C)(C)C)C[C@]2(O)C3(C)C)c1 [SB-T-12852-1]	–	5.2	0.48 nM	0.092 nM	–
CC(=O)O[C@@]12CO[C@@H]1C[C@H](O)[C@@]1(C)C(=O)[C@H](OC(=O)C3CC3)C3=C(C)[C@@H](OC(=O)[C@H](O)[C@H](C=C(F)F)NC(=O)OC(C)(C)C)C[C@@](O)([C@@H](OC(=O)c4cccc(F)c4)[C@H]21)C3(C)C [SB-T-12852-2]	–	24	1.72 nM	0.071 nM	–
CC(=O)O[C@@]12CO[C@@H]1C[C@H](O)[C@@]1(C)C(=O)[C@H](OC(=O)C3CC3)C3=C(C)[C@@H](OC(=O)[C@H](O)[C@H](C=C(F)F)NC(=O)OC(C)(C)C)C[C@@](O)([C@@H](OC(=O)c4cccc(N=[N+]=[N-])c4)[C@H]21)C3(C)C [SB-T-12852-3]	–	4.9	0.45 nM	0.092 nM	–
CC(=O)O[C@@]12CO[C@@H]1C[C@H](O)[C@@]1(C)C(=O)[C@H](OC(=O)C3CC3)C3=C(C)[C@@H](OC(=O)[C@H](O)[C@H](C=C(F)F)NC(=O)OC(C)(C)C)C[C@@](O)([C@@H](OC(=O)c4ccccc4)[C@H]21)C3(C)C [SB-T-12852]	–	50	6 nM	0.12 nM	IC50 [6]: 5.85 nM; IC50 [8]: 0.85 nM
CCC(=O)O[C@H]1C(=O)[C@@]2(C)C([C@H](OC(=O)c3ccccc3)[C@]3(O)C[C@H](OC(=O)[C@H](O)[C@H](C=C(F)F)NC(=O)OC(C)(C)C)C(C)=C1C3(C)C)[C@]1(OC(C)=O)CO[C@@H]1C[C@@H]2O (some centres unmarked) [SB-T-12853]	–	10	1.2 nM	0.12 nM	IC50 [6]: 0.65 nM; Rate of GTP-independent tubulin polymerization [7]: much faster than paclitaxel; IC50 [8]: 0.34 nM
CC(=O)O[C@@]12CO[C@@H]1C[C@H](O)[C@@]1(C)C(=O)[C@H](OC(=O)N(C)C)C3=C(C)[C@@H](OC(=O)[C@H](O)[C@H](C=C(F)F)NC(=O)OC(C)(C)C)C[C@@](O)([C@@H](OC(=O)c4ccccc4)C12)C3(C)C (some centres unmarked) [SB-T-12854]	0.14 ± 0.05 nM	33	4.3 nM	0.13 nM	IC50 [6]: 1.58 nM; times higher potency than conventional anticancer drugs [9]: 230-33,000 times; Critical concentration of tubulin required for microtubule assembly (tubulin [1]): 0.3 ± 0.1 µM; times stronger binding to microtubules than paclitaxel (microtubules [10]): ca. 10 times; Potency in inducing tubulin assembly relative to SB-T-1214 (tubulin [11]): three times higher potency than SB-T-1214; Rate of GTP-independent tubulin polymerization [7]: much faster than paclitaxel; Binding constant with microtubules (microtubules [2]; 26 °C): 15±3 x10^7 M^−1; Binding constant with microtubules (microtubules [2]; 37 °C): 10±1 x10^7 M^−1; IC50 [8]: 0.46 nM
COC(=O)O[C@H]1C(=O)[C@@]2(C)C([C@H](OC(=O)c3cccc(OC)c3)[C@]3(O)C[C@H](OC(=O)[C@H](O)[C@H](C=C(F)F)NC(=O)OC(C)(C)C)C(C)=C1C3(C)C)[C@]1(OC(C)=O)CO[C@@H]1C[C@@H]2O (some centres unmarked) [SB-T-12855-1]	–	6.4	0.5 nM	0.078 nM	–
COC(=O)O[C@H]1C(=O)[C@@]2(C)C([C@H](OC(=O)c3cccc(N=[N+]=[N-])c3)[C@]3(O)C[C@H](OC(=O)[C@H](O)[C@H](C=C(F)F)NC(=O)OC(C)(C)C)C(C)=C1C3(C)C)[C@]1(OC(C)=O)CO[C@@H]1C[C@@H]2O (some centres unmarked) [SB-T-12855-3]	–	5.3	0.4 nM	0.078 nM	–
COC(=O)O[C@H]1C(=O)[C@@]2(C)C([C@H](OC(=O)c3cccc(Cl)c3)[C@]3(O)C[C@H](OC(=O)[C@H](O)[C@H](C=C(F)F)NC(=O)OC(C)(C)C)C(C)=C1C3(C)C)[C@]1(OC(C)=O)CO[C@@H]1C[C@@H]2O (some centres unmarked) [SB-T-12855-4]	–	12	1.16 nM	0.099 nM	–
N.N.[Cl][Pt][Cl] [cisplatin]	4540 nM	–	–	–	–
COc1cccc2c1C(=O)c1c(O)c3c(c(O)c1C2=O)C[C@@](O)(C(=O)CO)C[C@@H]3O[C@H]1C[C@H](N)[C@H](O)[C@H](C)O1 [doxorubicin]	78 ± 28.2 nM	–	–	–	–
CN(Cc1cnc2nc(N)nc(N)c2n1)c1ccc(C(=O)N[C@@H](CCC(=O)O)C(=O)O)cc1 [methotrexate]	32.7 ± 11.2 nM	–	–	–	–
CC(=O)O[C@H]1C(=O)[C@@]2(C)[C@H]([C@H](OC(=O)c3ccccc3)[C@]3(O)C[C@H](OC(=O)[C@H](O)[C@@H](NC(=O)c4ccccc4)c4ccccc4)C(C)=C1C3(C)C)[C@]1(OC(C)=O)CO[C@@H]1C[C@@H]2O [paclitaxel, reference compound]	33.8 ± 3.33 nM	250	300 nM	1.2 nM	IC50 [6]: 25.7 nM; IC50 [8]: 3.6 nM
CC[C@@]1(O)C(=O)OCc2c1cc1n(c2=O)Cc2cc3c(CN(C)C)c(O)ccc3nc2-1 [topotecan]	451 ± 12 nM	–	–	–	–
